Assay [1] addresses Tyrosine-protein kinase JAK2 (Homo sapiens, UniProt O60674). Nature of the assay: HTRF Biochemical Assay. The settings on record: 25 °C. A general note: TR-FRET usually uses a lanthanide donor and a delayed reading to cut background.
In assay [2] the target is Tyrosine-protein kinase JAK1 (Homo sapiens, UniProt P23458). Kind of assay: HTRF Biochemical Assay. The settings on record: 25 °C.
Tyrosine-protein kinase JAK1, sequence (P23458 whole entry): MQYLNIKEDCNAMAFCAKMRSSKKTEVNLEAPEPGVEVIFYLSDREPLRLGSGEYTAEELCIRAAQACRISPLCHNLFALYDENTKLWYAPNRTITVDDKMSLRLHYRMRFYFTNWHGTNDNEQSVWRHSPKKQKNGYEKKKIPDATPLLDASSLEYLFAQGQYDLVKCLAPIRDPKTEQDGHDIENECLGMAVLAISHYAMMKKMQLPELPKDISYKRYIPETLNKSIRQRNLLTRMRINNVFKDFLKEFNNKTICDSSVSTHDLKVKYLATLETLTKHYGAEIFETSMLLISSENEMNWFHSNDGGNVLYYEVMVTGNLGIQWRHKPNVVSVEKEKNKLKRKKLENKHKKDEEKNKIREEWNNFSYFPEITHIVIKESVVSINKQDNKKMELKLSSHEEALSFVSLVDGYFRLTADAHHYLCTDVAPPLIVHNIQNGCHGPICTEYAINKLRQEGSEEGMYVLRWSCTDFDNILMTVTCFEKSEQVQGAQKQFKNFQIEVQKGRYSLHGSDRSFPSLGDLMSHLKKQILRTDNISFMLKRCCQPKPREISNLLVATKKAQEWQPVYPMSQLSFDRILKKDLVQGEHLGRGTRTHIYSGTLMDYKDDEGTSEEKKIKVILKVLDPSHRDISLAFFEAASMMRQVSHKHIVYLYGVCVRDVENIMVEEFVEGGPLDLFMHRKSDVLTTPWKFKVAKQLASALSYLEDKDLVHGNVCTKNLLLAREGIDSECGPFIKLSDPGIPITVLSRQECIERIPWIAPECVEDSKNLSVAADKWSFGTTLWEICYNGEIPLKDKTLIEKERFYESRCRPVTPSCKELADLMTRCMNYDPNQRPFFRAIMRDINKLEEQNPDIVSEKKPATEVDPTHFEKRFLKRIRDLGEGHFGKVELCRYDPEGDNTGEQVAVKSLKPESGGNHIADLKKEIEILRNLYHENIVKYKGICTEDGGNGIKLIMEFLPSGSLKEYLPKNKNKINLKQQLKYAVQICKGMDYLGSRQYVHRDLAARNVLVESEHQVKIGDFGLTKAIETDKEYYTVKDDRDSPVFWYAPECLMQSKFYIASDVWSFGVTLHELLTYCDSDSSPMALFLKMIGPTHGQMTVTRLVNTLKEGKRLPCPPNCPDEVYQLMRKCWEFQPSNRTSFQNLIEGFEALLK

Tyrosine-protein kinase JAK2, sequence (O60674 whole entry): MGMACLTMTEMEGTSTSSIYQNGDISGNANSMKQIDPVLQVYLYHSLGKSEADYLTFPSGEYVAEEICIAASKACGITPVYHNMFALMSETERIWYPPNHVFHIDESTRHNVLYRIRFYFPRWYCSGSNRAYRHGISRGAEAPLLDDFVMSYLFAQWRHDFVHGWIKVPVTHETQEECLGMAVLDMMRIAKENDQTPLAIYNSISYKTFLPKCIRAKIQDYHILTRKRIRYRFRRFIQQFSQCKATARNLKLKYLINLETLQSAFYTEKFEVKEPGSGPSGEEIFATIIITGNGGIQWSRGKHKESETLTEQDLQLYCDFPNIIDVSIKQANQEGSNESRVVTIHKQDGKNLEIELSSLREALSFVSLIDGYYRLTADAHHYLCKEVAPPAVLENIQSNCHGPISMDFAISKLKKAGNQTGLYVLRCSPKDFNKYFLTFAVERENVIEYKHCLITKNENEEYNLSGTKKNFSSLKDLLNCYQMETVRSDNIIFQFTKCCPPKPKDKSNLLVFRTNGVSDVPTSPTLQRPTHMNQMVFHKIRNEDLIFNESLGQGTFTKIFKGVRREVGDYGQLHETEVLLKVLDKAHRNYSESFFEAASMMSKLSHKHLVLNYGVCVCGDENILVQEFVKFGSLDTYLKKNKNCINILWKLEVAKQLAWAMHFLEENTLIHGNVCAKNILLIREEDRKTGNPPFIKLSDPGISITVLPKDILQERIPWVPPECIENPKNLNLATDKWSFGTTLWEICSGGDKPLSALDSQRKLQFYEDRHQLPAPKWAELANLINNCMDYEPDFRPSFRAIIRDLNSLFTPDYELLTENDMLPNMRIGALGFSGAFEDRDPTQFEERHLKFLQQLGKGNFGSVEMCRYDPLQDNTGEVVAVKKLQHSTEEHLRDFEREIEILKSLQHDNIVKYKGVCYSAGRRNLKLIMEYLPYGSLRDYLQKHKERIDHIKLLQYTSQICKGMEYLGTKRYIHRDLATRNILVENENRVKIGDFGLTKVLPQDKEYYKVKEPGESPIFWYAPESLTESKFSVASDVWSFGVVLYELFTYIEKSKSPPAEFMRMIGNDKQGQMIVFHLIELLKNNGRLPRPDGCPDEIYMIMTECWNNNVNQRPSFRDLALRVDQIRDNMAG

As usually defined, the IC50 is the concentration that gives 50% inhibition. Read a high IC50 as weaker potency. As for `Cc1cc(F)c(Nc2ccnc3c2C(=O)Nc2cc(CN4CC[C@@H](N)C4)ccc2N3)cc1O` [US9328099, 29-A], the IC50 in assay [1] amounted to 40 nM; in assay [2] it was 1 nM.
